Measured values published in US11780845B2 (Relay Therapeutics, Inc., priority 2019, dated 2023).

How the values were obtained:
[1] = biological target: FGFR2 (Homo sapiens (Human), UniProt P21802); experiment: FGFR2 Biochemical Caliper Assay
Experimental: Compounds of the present invention were also tested in a FGFR2 Biochemical Caliper Assay. Compounds were prepared in 10 mM DMSO solution and serially diluted into 11 concentrations by 3-fold dilution. […] 5 uL of ATP solution (100 uM) was added to start the reaction and the plate was incubated for 90 minutes, then 70 uL of stopping buffer (0.5M EDTA) was added to terminate the reaction. Each well was analyzed using EZ reader.

[2] = tested on: SNU16 cells; experiment: SNU16 Cancer Cell Line Proliferation Assay; format: cell-based; conditions: Homo sapiens; SNU-16 cells
Method in brief: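 Proliferation read-out: CellTiter Glo chemiluminescence after 96 h compound exposure. Test compounds, serially diluted 3-fold over 11 points from a 10 mM DMSO stock, were added to SNU16 cells plated 24 h earlier at 37 degrees.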

Chain of FGFR2 (P21802 22-821): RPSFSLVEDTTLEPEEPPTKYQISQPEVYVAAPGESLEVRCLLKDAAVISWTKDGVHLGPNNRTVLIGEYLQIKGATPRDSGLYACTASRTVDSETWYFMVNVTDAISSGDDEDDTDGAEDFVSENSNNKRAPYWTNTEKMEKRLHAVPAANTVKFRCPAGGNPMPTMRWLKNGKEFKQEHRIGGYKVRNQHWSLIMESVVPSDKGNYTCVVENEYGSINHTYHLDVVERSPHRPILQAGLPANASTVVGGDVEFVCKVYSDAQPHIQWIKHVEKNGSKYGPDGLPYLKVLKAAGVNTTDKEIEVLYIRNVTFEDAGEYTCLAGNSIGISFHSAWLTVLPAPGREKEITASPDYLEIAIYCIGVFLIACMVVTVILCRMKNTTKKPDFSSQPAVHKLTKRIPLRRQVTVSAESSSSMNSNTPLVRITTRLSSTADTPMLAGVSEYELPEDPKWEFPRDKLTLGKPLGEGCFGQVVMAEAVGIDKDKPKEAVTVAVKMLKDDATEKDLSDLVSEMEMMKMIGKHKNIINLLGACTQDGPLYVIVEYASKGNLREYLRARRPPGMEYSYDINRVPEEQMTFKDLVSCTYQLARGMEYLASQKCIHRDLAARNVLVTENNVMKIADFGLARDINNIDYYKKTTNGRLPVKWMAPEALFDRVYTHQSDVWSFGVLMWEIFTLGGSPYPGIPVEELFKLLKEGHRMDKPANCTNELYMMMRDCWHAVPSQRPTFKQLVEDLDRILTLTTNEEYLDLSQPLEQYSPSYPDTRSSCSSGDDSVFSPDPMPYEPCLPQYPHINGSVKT

SMILES	IC50 [1] [nM]	IC50 [2] [nM]
C=Cc1ncc2cc(-c3c(-c4ccc(C(=O)N5CCCC5)cc4)c4c(N)ncnc4n3C)ccc2n1 [Example 573]	1000 to 100000	250 to 1000
C=C(C)C(=O)Nc1ccc(-c2c(-c3ccc(C(=O)NCC4CCC4)c(F)c3)c3c(N)ncnc3n2C)nc1 [Example 589]	< 100	≤ 100
Cn1c(-c2ccc(NC(=O)C3=CCC3)cc2)c(-c2ccc(C(=O)NCC3CCC3)c(F)c2)c2c(N)ncnc21 [Example 590]	< 100	≤ 100
C=C(C)C(=O)Nc1ccc(-c2c(-c3ccc(Oc4nccc(C)n4)c(C(F)F)c3)c3c(N)ncnc3n2C)cc1 [Example 594]	100 to 250	≤ 100
C=Cc1ccc(-c2c(-c3ccc(Oc4nccc(C)n4)cc3)c3c(N)ncnc3n2C)cn1 [Example 598]	100 to 250	250 to 1000
C=C(C)C(=O)Nc1ccc(-c2c(-c3ccc(Oc4nccc(C(F)F)n4)cc3)c3c(N)ncnc3n2C)cc1 [Example 600]	< 100	≤ 100
C=C(C)C(=O)Nc1ccc(-c2c(C3=C(F)CC(C(=O)N4CCCC4)CC3)c3c(N)ncnc3n2C)cc1 (stereo not shown) [Example 601]	1000 to 100000	250 to 1000
C=CC(=O)N1CCC(n2cc(-c3c(-c4ccc(Oc5ccccc5)cc4)c4c(N)ncnc4n3C)cn2)CC1 [Example 602]	< 100	≤ 100
C=CC(=O)N1CC=C(c2c(-c3ccc(Oc4ccccc4)cc3)c3c(N)ncnc3n2C)CC1 [Example 603]	< 100	≤ 100
C=CC(=O)N1CCC(n2cc(-c3c(-c4ccc(Oc5ccccc5)cc4)c4c(N)ncnc4n3C)cn2)C(O)C1 (stereo not shown) [Example 607]	< 100	≤ 100
C=CC(=O)N1CCC(n2cc(-c3c(-c4ccc(Oc5cccc(C)n5)cc4)c4c(N)ncnc4n3C)cn2)CC1 [Example 608]	< 100	≤ 100
CCC(=O)N1CCC(n2cc(-c3c(-c4ccc(Oc5ccccc5)cc4)c4c(N)ncnc4n3C)cn2)CC1 [Example 617]	100 to 250	250 to 1000
C=CC(=O)N1CCC(n2cc(-c3c(-c4ccc(OC)cc4)c4c(N)ncnc4n3C)cn2)CC1 [Example 618]	< 100	≤ 100
C=CC(=O)N1CCC(c2c(-c3ccc(Oc4cccc(C)n4)c(OC)c3)c3c(N)ncnc3n2C)CC1 [Example 619]	100 to 250	100 to 250
C=CC(=O)N1CC=C(c2c(-c3ccc(Oc4cccc(C)n4)c(OC)c3)c3c(N)ncnc3n2C)CC1 [Example 620]	< 100	≤ 100
Cc1cccc(Oc2ccc(-c3c(-c4cnn(C5CCN(C(=O)/C=C/CN(C)C)CC5)c4)n(C)c4ncnc(N)c34)cc2)n1 [Example 621]	< 100	≤ 100
C=C(C)C(=O)N1CCC(n2cc(-c3c(-c4ccc(Oc5cccc(C)n5)cc4)c4c(N)ncnc4n3C)cn2)CC1 [Example 622]	250 to 1000	1000 to 100000
C=CC(=O)NC1CC=C(c2c(-c3ccc(Oc4cccc(C)n4)c(OC)c3)c3c(N)ncnc3n2C)CC1 (stereo not shown) [Example 623]	100 to 250	100 to 250
C=CC(=O)N1CCCC(n2cc(-c3c(-c4ccc(Oc5ccccc5)cc4)c4c(N)ncnc4n3C)cn2)C1C (stereo not shown) [Example 626]	100 to 250	250 to 1000
C=CC(=O)N1CCCC(n2cc(-c3c(-c4ccc(Oc5cccc(C)n5)cc4)c4c(N)ncnc4n3C)cn2)C1C (stereo not shown) [Example 627]	< 100	≤ 100
C=CC(=O)N(C)C1CC(n2cc(-c3c(-c4ccc(Oc5cccc(C)n5)cc4)c4c(N)ncnc4n3C)cn2)C1 (stereo not shown) [Example 628]	< 100	≤ 100
C=CC(=O)N1CCCC(n2cc(-c3c(-c4ccc(Oc5cccc(C)n5)cc4)c4c(N)ncnc4n3C)cn2)C1 (stereo not shown) [Example 629]	< 100	≤ 100
C=CC(=O)N1CCC(n2cc(-c3c(-c4ccc(Oc5cccc(C)n5)cc4)c4c(N)ncnc4n3C)cn2)C1 (stereo not shown) [Example 630]	< 100	≤ 100
